We go through eight molecules from patent publication US12180159B2, “Activators of the unfolded protein response” (The Board of Trustees of the University of Illinois, priority 2018, dated 2024).

The test system of series [1] is T47D, TYS-4 and TDG-1 cells. Briefly: MTS proliferation assay, T47D, TYS and TDG cells. The series is classed as cell-based, human. Conditions: 4 days. The method, then: FIG. 30 compares the ability of BHPI and test compounds to inhibit proliferation of T47D, TYS and TDG cells. T47D cells were in medium containing 10 FBS (which contains estrogen), TYS-4 and TDG-1 cells were in medium containing 10% cd-FBS (estrogen depleted). Cells are plated at 2,000 cells/well in 96 well plates. After 24 hours in medium containing FBS or charcoal-dextran treated FBS (depleted of endogenous estrogens), the indicated concentration of each compound (in DMSO at 1/1000th of the volume of medium) was added. After 2 days the medium was changed, and the compounds were added again. After 2 additional days (4 days total) MTS assays are used to evaluate cell proliferation. (n=6±S.E.M.).
Background: Tetrazolium assays rely on reduction of a dye to a coloured formazan, in cell work by metabolically active cells.

The subject of series [2] is ERα Negative MCF-10A cells. Briefly: Trypan Blue exclusion cell death assay, MCF-10A cells. It counts as cell-based. Conditions: 75 nM, 24 hours. From the text: (§1) TRYPAN BLUE: For decades, viable cells have been measured by their ability to exclude the dye Trypan Blue. […] Dead cells, which have lost membrane integrity, take up the dye and are blue. Thus, the percentage of dead cells is the percentage of cells that are Trypan Blue positive out of the total cell population. Quantitative assessment of Trypan Blue uptake uses a cell counter from Fisher. Since the assay is instrument based, there is no observer bias in determining the percentage of Trypan Blue positive cells.
(§2) TRYPAN BLUE ASSAYS: Assays are performed on cells in 6 well plates: 300,000 cells are plated in each well of a 6 well plate in 3 ml of medium. After 24 hours, the DMSO vehicle or the indicated compound is added (in 1000th of the vol.) The cells incubated for an additional 24 hours, and then harvested in 0.25 ml of trypsin, followed after harvest by 0.75 ml of medium. The cells are spun down and resuspended in 100-200 μl of medium left that is over the cell pellet (resuspend cells by pipetting up and down a few times). Add 10 μl to 10 μl of trypan blue. Then 10 μl is inserted into the counting slide. After inserting the slide into the Fisher TC20 counting is automatic (these many cells are needed because an accurate ratio of Trypan Blue positive to Trypan Blue negative cells requires about 200 cells in the field the instrument counts).
In FIG. 28, neither the test compounds nor BHPI kill non-tumorigenic ERα Negative MCF-10A breast cells. ERα Negative MCF-10A cells were maintained for 24 hours in DMSO vehicle or 75 nM of BHPI or 75 nM of each of the indicated test compounds: 4, 6 and 105. Cell death was determined using the instrument-based Trypan Blue exclusion assay. (n=3±SEM).

The next series deals with TDG cells (T47DERαD538G). Briefly: Trypan Blue exclusion cell death assay, TDG cells. It counts as cell-based, human. Conditions: 24 hours; for killing of TDG-Luc cells: dose response.
Description: as §1, §2
The Trypan Blue cell death assay was used to evaluate the ability of the active enantiomer of C-105 [(−)-105] to kill ERα positive TDG-Luc cells. For all studies, 300,000 TDG-Luc cells/well in 10% FBS were plated in a 6 well plate in triplicate. 24 hours after plating, the indicated concentrations the active enantiomer of (−)-105, or BHPI (top) ICI, or OHT (Lower left) or (+)-105 (lower right) were added. After 24 hours, the cells were harvested, and the % dead cells was determined by automated Trypan Blue exclusion using the Countess II automated hemocytometer. Percentage of viable cells was calculated by doing 100−(Cell Death %). (n=3±SEM).
TDG cells were incubated for 24 hours with 75 nM of BHPI or 75 nM of each of the indicated test compounds: 4, 6 and (±)-105 (enantiomers not separated). Cell death was determined using the instrument-based Trypan Blue exclusion assay. Structures are in the Synthesis section. […] (n=3±SEM).

Series [3] has as its system ERα positive and ERα negative cell lines. The series is classed as cell-based. The method, then: ERα positive MCF-7 breast cancer, Caov-3 ovarian cancer and ECC-1 uterine cancer cells and ERα negative MDA-MB-231 human breast cancer cells and HeLa, human cervical carcinoma cells and MCF-10A human mammary epithelial cells were plated at 10,000 cells/well (96 well plate) in 50 μl of medium. After about 18 hours, an additional 50 μl of medium containing 2× the desired final concentration of the test compound (C-105) was added to each well (final vol. 100 μl/well). After 24 hours Alamar Blue reagent was added and fluorescence in the wells was read after 1 hour (BMG PheraStar Microplate Reader). % relative death was determined by setting the reading for 10,000 nM raptinal-treated cells to 100% dead cells and the reading for vehicle-treated cells to 0% dead cells. (Data is the average±SEM of 3 independent experiments with 5 biological replicates for each sample within each independent experiment.)
FIG. 3 compares the ability of (±)-105 to kill ERα positive and ERα negative cells. The dose response tests the ability of (±)-105 to rapidly kill ERα positive and ERα negative cells. […] After 24 hours Alamar Blue reagent was added and fluorescence in the wells was read. % relative death was determined by setting the reading for […] raptinal-treated cells to 100% dead cells and the reading for vehicle-treated cells to 0% dead cells. […]

The subject of series [4] is MCF-7 ERα Y537S-luciferase cells. Briefly: Long-term cell culture experiment, MCF-7Y537S cells. The series is classed as cell-based, human. Conditions: conditions as FIG. 15.
In the next series the test system is Caov-3 cells. Briefly: Cell death of Caov-3 ovarian cancer cells (automated Trypan Blue exclusion). It counts as cell-based, human. Conditions: 24 hours. The method, then:
FIG. 33. 105, but not BHPI, kills therapy-resistant ovarian CaOV-3 ovarian cancer cells. (±)-105; Cell death assay: Automated Trypan Blue exclusion. (24 hours post (±)-105) FIG. 34. (−)105 nearly eradicates ER+ drug-resistant tumors. Orthotopic breast cancer model, TYS-Luc cells, 40 mg/kg (−)-105 i.p., daily. 7 d Post injection image is a much longer exposure at higher gain than before injection image.
Caov3: Drug resistant ERα positive ovarian cancer cells. […] These cells are completely resistant to tamoxifen and fulvestrant and partially resistant to cisplatin and paclitaxel.

A further series concerns TYS cells (T47DERαY537S). Briefly: Trypan Blue exclusion cell death assay, TYS cells. It counts as cell-based, human. Conditions: 24 hours.
Description: as §1, §2
TYS cells were incubated for 24 hours with 35 nM of BHPI or 35 nM of each of the indicated test compounds: 2, 4, and 105. Cell death was determined using the instrument-based Trypan Blue exclusion assay. (n=3±SEM).
TYS cells were incubated for 24 hours with 50 nM of BHPI or 50 nM of each of the indicated test compounds: 4, 6 and 105. Cell death was determined using the instrument-based Trypan Blue exclusion assay. (n=3±SEM).

In a further series the test system is OVCAR-3 cells. Conditions: OVCAR-3 orthotopic xenograft.
Series [5] deals with TYS and TDG breast cancer cells. Briefly: Killing of TYS and TDG breast cancer cells by endocrine therapy drugs. The series is classed as cell-based, human.
For the next series, the system named is MCF-7 tumors. Briefly: MCF-7 orthotopic tumor model. The series is classed as in vivo, mouse. Conditions: mouse, in vivo. How it is done: FIG. 39. SERK-F6 eradicates wild-type ERα tumors via hyperactivation of aUPR. a, MCF-7 orthotopic tumors were established in Nu/J ovariectomized mice supplemented with a 60 day E2 pellet (0.36 mg) and grown to ˜400 mm^3 (28 days to establish), randomized, then treated with vehicle daily (n=3), vehicle weekly (n=3), fulv. weekly (5 mg/mouse, s.c., n=6), SERK-F6 daily (10 or 40 mg/kg p.o.). Vehicle arms were averaged. p values: *: p<0.05, **: p<0.01, ***: p<0.001, ****: p<0.0001. Tumor images were taken at the end of the study (day 21) and are representative of all tumors (n=6). b-e, MCF-7 cells were orthotopically bi-laterally grafted and tumors were grown until total tumor burden was ˜ 400 mm^3 prior to daily treatment with vehicle or SERK-F6 (40 mg/kg p.o.). Mice (n=5 per arm) were sacrificed after 3 days (b,c) and 7 days (d,e) and tumors harvested. […] Vinculin (Vin) was used as a loading control. […] Error bars represent S.E.M.
FIG. 40. SERK-F6 is tolerated, reaches biologically relevant concentrations, and crosses the blood-brain barrier in vivo. a, Serum concentrations of SERK-F6 after indicated doses, route of administration, and time. Concentration was determined via LC/MS/MS analysis. […] AUC: Area Under the Curve, Cmax: maximum concentration, t1/2: half-life. c,d, Mice (CD-1) were treated with the indicated doses and times, then sacrificed and their serum and brains collected. Concentrations were determined via LC/MS/MS analysis. […] Treatment arms: vehicle daily (n=3), vehicle weekly (n=3), fulv. weekly (5 mg/mouse, s.c., n=6), SERK-F6 daily (10 or 40 mg/kg p.o.). Vehicle arms were combined. g, Mass of tumors harvested from mice. h, observed murine weight during this MCF-7 study (n=6). i,j, Tumor measurements for MCF-7 bilateral orthotopic model (n=4-5).
To probe the efficacy of SERK-F6 for killing ERα positive tumors, large MCF-7 tumors were grown and then intervened with therapy. […] The mice were then sacrificed prior to complete tumor eradication.

Another series deals with MCF-7 and TYS-Luc cells. Briefly: Cell death with 2-APB or thapsigargin (Trypan Blue exclusion). The series is classed as cell-based, human. Conditions: 2-APB. How it is done: ERα positive MCF-7 and TYS-Luc were treated with DMSO vehicle (Veh), or BHPI or (−)-105 plus or minus 2-APB for the indicated times. Cells death was determined using the instrument-based Trypan Blue exclusion assay. […] This is consistent with (−)-105 inducing powerful lethal activation of the anticipatory UPR pathway. (n=3±SEM). […] TYS-Luc cells were maintained in DMSO vehicle (Veh) or BHPI, or (−)-105 with or without thapsigargin (THG) for the indicated times. Blocking the decline in ATP levels (FIG. 19) with THG inhibited (−)-105-induced cell death. […] (n=3±SEM).

With `Cc1cccc2c1NC(=O)C2(c1ccc(O)cc1)c1ccc(OC(F)(F)F)cc1` (centres unmarked) [compound 6, 3-(4-hydroxyphenyl)-7-methyl-3-(4-(trifluoromethoxy)phenyl)indolin-2-one], in series [1], the “effectiveness in killing ERα positive breast cancer cells compared to BHPI” value (from here on “effectiveness … compared to BHPI”) was “more effective than BHPI”. In addition, the “death of ERα Negative MCF-10A cells” value in [2] is “neither BHPI nor any of the test compounds induce significant death”.
On to `O=C1Nc2c(C(F)(F)F)cccc2C1(c1ccc(O)cc1)c1ccc(OC(F)(F)F)cc1` (single isomer, unassigned; (+)) [(+)-105, 3-(4-hydroxyphenyl)-3-(4-(trifluoromethoxy)phenyl)-7-(trifluoromethyl)indolin-2-one], for which the “killing of TDG-Luc cells” value with TDG cells (T47DERαD538G) was “inactive and does not kill”. For the same molecule, the “effect of the inactive enantiomer in ERα positive and ERα negative cell lines” value in series [3] is “ineffective and not toxic”. The “effect on MCF-7Y537S cells in long-term experiments” value in series [4] was “inactive”.
For the molecule `O=C1Nc2c(C(F)(F)F)cccc2C1(c1ccc(O)cc1)c1ccc(OC(F)(F)F)cc1` (racemic) [(±)-105, 3-(4-hydroxyphenyl)-3-(4-(trifluoromethoxy)phenyl)-7-(trifluoromethyl)indolin-2-one], the “ability to kill TDG cells compared to BHPI” value with TDG cells (T47DERαD538G) (75 nM) is recorded as “greatly increased ability to kill”. The “killing of Caov-3 ovarian cancer cells” value in the series with Caov-3 cells was “kills”. Further, the “selectivity for ERα positive cancer cell lines” value in series [3] (0-10,000 nM, 24 hours) is on record as “selective for ERα positive cancer cell lines”. Also, the results for the “ability to kill TYS cells compared to BHPI” value in the series on TYS cells (T47DERαY537S) (35 nM) and with TYS cells (T47DERαY537S) (50 nM) were “greatly increased ability to kill” and “increased ability to kill”, respectively. The “effectiveness … compared to BHPI” value in series [1] is on record as “more effective than BHPI”. The “death of ERα Negative MCF-10A cells” value in series [2] was “neither BHPI nor any of the test compounds induce significant death”.
Consider `COc1ccc(C2(c3ccc(O)cc3)C(=O)Nc3c(C)cccc32)cc1` (centres unmarked) [compound 2, 3-(4-hydroxyphenyl)-3-(4-methoxyphenyl)-7-methylindolin-2-one], for which the “effectiveness … compared to BHPI” value in [1] is “more effective than BHPI”.
Consider `CC(=O)O[C@H]1C(=O)[C@@]2(C)[C@H]([C@H](OC(=O)c3ccccc3)[C@]3(O)C[C@H](OC(=O)[C@H](O)[C@@H](NC(=O)c4ccccc4)c4ccccc4)C(C)=C1C3(C)C)[C@]1(OC(C)=O)CO[C@@H]1C[C@@H]2O` [paclitaxel], for which the “effect on tumor growth / tumors” value in the series with OVCAR-3 cells was “ineffective”.
As for `C[C@]12CC[C@@H]3c4ccc(O)cc4C[C@@H](CCCCCCCCC[S+]([O-])CCCC(F)(F)C(F)(F)F)[C@H]3[C@@H]1CC[C@@H]2O` (some centres unmarked) [fulvestrant, reference compound], the “ability to kill TYS and TDG breast cancer cells” value in series [5] is “no ability at all to kill”. Further, the “killing of TDG-Luc cells” value in the series on TDG cells (T47DERαD538G) was “do not kill”. Further, in the series on MCF-7 tumors, the “effect on large established MCF-7 tumors” value is “dramatic effects against these large and established tumors are not obtained”.
As for `CC/C(=C(\c1ccccc1)c1ccc(OCCN(C)C)cc1)c1ccccc1` [tamoxifen], the “ability to kill TYS and TDG breast cancer cells” value in [5] is listed as “no ability at all to kill”.
On to `NCCOB(c1ccccc1)c1ccccc1` [2-APB], for which the “effect on (−)-105-induced cell death” value is reported as “partially blocked” in the series on MCF-7 and TYS-Luc cells (45 and 60 min.); “nearly completely blocked” in the series with MCF-7 and TYS-Luc cells (30 minutes).
